# In PMC5988308, “Rhodanine derivatives as potent anti-HIV and anti-HSV microbicides” (PLoS ONE, 2018):
# Several values for one entry are separate records, joined by “and”; a condition that tells them apart may be missing. Equal values may be shown once. Read-outs that look alike come from different tables or passages of the source.
# Legend:
# [1] = tested on: HIV-1 NL4.3 (CXCR4-tropic strain); experiment: Antiviral activity on TZM-bl cells infected with HIV-1 NL4.3 (CPRG assay); type: cell-based; conditions: TZM-bl cells
# Experimental: After 48 h of incubation, the medium was removed and viral infection was quantified using a β-galactosidase (CPRG) assay (Roche). Twenty thousand TZM-bl cells/well were seeded in 96-well plates in complete DMEM supplemented with 30 μg/mL DEAE-dextran (Sigma-Aldrich). […] Vehicle (0.1% dimethyl sulfoxide [DMSO])-treated cells served as a negative control. […] After 2 days, viral infection was quantified using a CPRG assay (Roche). […] To evaluate the cell toxicity of the compounds, the metabolic XTT [2,3-bis-(2-methoxy-4-nitro-5-sulfophenyl)-2H-tetrazolium-5-carboxanilide] test (Sigma-Aldrich) was performed according to the manufacturer’s instructions.
# [2] = tested on: HSV-2; experiment: HSV-2 plaque reduction assay on Vero cells; type: cell-based; conditions: for EC50 / EC90: Human alphaherpesvirus 2, Vero; for EC50: read-out: HSV-2 EC50; for EC90: read-out: HSV-2 EC90; for SI (CC50/EC50), HSV-2: Vero cells
# Experimental: (§1) Clinical isolates of HSV-1 and HSV-2 were kindly provided by Prof. M. Pistello, University of Pisa, Italy. HSV-1 and HSV-2 strains were propagated and titrated by plaque assay on Vero cells. A HSV-2 strain with phenotypic resistance to acyclovir was generated by serial passage in the presence of increasing concentrations of acyclovir, as previously described.
# (§2) The effect of the rhodanine derivatives on HSV infection was evaluated by plaque reduction assay. Vero cells were pre-plated 24 h in advance in 24-well plates at a density of […]. Increasing concentrations of compounds were mixed with HSV-2 (MOI 0.001 pfu/cell) or HSV-2 acyclovir resistant (MOI 0.001) or HSV-1 (MOI 0.0005) or and incubated for 1 hour at 37°C. The mixtures were subsequently added to the cells, which were then incubated at 37°C for 2 h. The virus inoculum was then removed and the cells washed and overlaid with a medium containing 1.2% methylcellulose (Sigma). After further incubation at 37°C for 24 h (HSV-2 and HSV-2 R Acy) or 48 h (HSV-1), cells were fixed and stained with 0.1% crystal violet in 20% ethanol and viral plaques counted. The effective concentration producing 50% reduction (EC50) and 90% reduction (EC90) in plaque formation was determined using Prism software by comparing drug-treated with wells treated with medium and solvent. The selectivity index (SI) was calculated by dividing the CC50 by the EC50 value.
# (§3) All results are presented as the mean values from three independent experiments. The EC50 values for inhibition curves were calculated by regression analysis using the software GraphPad Prism (GraphPad Software, San Diego, California, U.S.A.) by fitting a variable slope-sigmoidal dose–response curve. Acyclovir was purchased from Sigma Aldrich (Milan, Italy).
# [3] = Parallel Artificial Membrane Permeability Assay (PAMPA); type: in vitro ADME; conditions: pH 7.4, 5 h
# Experimental: Donor solution (0.5 mM) was prepared by diluting 1 mM dimethylsulfoxide (DMSO) compound stock solution using phosphate buffer (pH 7.4, 0.025 M). Filters were coated with 5 μL of a 1% (w/v) dodecane solution of L-α-phosphatidylcholine. Donor solution (150 μL) was added to each well of the filter plate. To each well of the acceptor plate were added 300 μL of solution (50% DMSO in phosphate buffer). All compounds were tested in three different plates on different days. The sandwich was incubated for 5 h at room temperature under gentle shaking. After the incubation time, the plates were separated, and samples were taken from both receiver and donor sides and analyzed using UV/HPLC-MS gradient method above reported. Permeability (Papp) for PAMPA, were calculated according to the following equation, obtained from Wohnsland and Faller and Sugano [37] equation with some modification in order to obtain permeability values in cm s-1, Papp=VDVA/(VD+VA)At−ln(1−r) where VA is the volume in the acceptor well, VD is the volume in the donor well (cm^3), A is the “effective area” of the membrane (cm^2), t is the incubation time (s) and r the ratio between drug concentration in the acceptor and equilibrium concentration of the drug in the total volume (VD+VA). Drug concentration is estimated by using the peak area integration.
# [4] = tested on: HPV-16 PsVs; experiment: HPV-16 inhibition assay in HeLa cells; type: cell-based; conditions: up to 50 μM
# Experimental: Plasmids and 293TT cells used for pseudovirus (PsV) production were kindly provided by John Schiller (National Cancer Institute, Bethesda, MD). 293TT cell line, derived from human embryonic kidney cells transformed with the simian virus 40 (SV40) large T antigen, was cultured in DMEM (Gibco-BRL, Gaithersburg, MD) supplemented with heat inactivated 10% FCS (Gibco- BRL), Glutamax-I 1% (Invitrogen, Carlsbad, CA) and nonessential amino acids 1% (Sigma Aldrich, Steinheim, Germany). HPV-16 PsVs were produced as described in Cagno et al 2015. 293TT cells were transfected with plasmid expressing the papillomavirus major and minor capsid proteins (L1 and L2, respectively), together with a reporter plasmid expressing GFP. Capsids were allowed to mature overnight in cell lysate; the clarified supernatant was then loaded on top of a density gradient of 27 to 33 to 39% Optiprep at room temperature for 3 h. The material was centrifuged at 28000 rpm for 16 h at 4°C in an SW41.1 rotor (Beckman Coulter, Inc., Fullerton, CA) and then collected by bottom puncture of the tubes. […] The L1 protein content of PsV stocks was determined by comparison with bovine serum albumin standards in Coomassie-stained SDS-polyacrylamide gels. […]
# [5] = tested on: HSV-1; experiment: HSV-1 plaque reduction assay on Vero cells; type: cell-based; conditions: read-out: HSV-1 EC50, Vero cells
# Experimental: as §1, §2, §3
# [6] = tested on: human CD4+ T lymphocytes; experiment: Cytotoxicity on human CD4+ T lymphocytes; type: cell-based
# Experimental: (§4) The antiviral activity and cytotoxicity of compounds 2, 9e and 9f was tested also on freshly purified human CD4^+ T lymphocytes obtained from healthy blood donors (informed consent available) as described previously on HIV laboratory strain NL4.3 and AD8 [33, 34].
# [7] = Cytotoxicity on human CD4+ T lymphocytes; type: cell-based
# Experimental: as §4
# [8] = tested on: HIV-1 NL 4.3 WT; experiment: Antiviral activity on human CD4+ T lymphocytes, NL4.3 WT; type: cell-based; conditions: Human immunodeficiency virus 1; human CD4+ T lymphocytes; read-out: NL 4.3 WT EC50
# Experimental: as §4
# [9] = Human immunodeficiency virus 1, NL43, TZM-bl, pre-incubation in complete medium containing fetal bovine serum (FBS), read-out: NL4-3 EC50 a
# [10] = Human immunodeficiency virus 1, NL43, TZM-bl, pre-incubation with virus without serum, read-out: NL4-3 EC50
SMILES,"EC50 [1, 9] [µM]","EC50 [1, 10] [µM]",EC50 [2] [µM],EC90 [2] [µM],"SI (CC50/EC50), HSV-2 [2]",melting point,Papp [3],"EC50 ([1]; Human immunodeficiency virus 1, TZM-bl, pre-incubation with FBS, read-out: EC50 against NL4.3 strain in presence of serum) [µM]","EC50 ([1]; pre-incubation with virus without serum, read-out: NL4-3 EC50) [µM]",antiviral activity on HPV-16 [4],"EC50 ([5]; Human alphaherpesvirus 1, Vero) [µM]",EC50 [5] [µM],SI (Selectivity Index) [6],CC50 [7] [µM],EC50 [8] [µM]
"O=C(O)c1ccc(-c2ccc(/C=C3\SC(=S)N(CCc4ccc(F)cc4)C3=O)o2)cc1O [Compound 9a, (Z)-4-(5-((3-(4-fluorophenethyl)-4-oxo-2-thioxothiazolidin-5-ylidene)methyl)furan-2-yl)-2-hydroxybenzoic acid]",0.204 ± 0.012,0.0054,0.345 ± 0.168,0.426 ± 0.0563,>869,292 °C (dec.),0.4 1·10^-6cm/sec,,,,,,,,
"CCc1ccc(CCN2C(=O)/C(=C/c3ccc(-c4ccc(C(=O)O)c(O)c4)o3)SC2=S)cc1 [Compound 9d, (Z)-4-(5-((3-(4-ethylphenethyl)-4-oxo-2-thioxothiazolidin-5-ylidene)methyl)furan-2-yl)-2-hydroxybenzoic acid]",0.228 ± 0.01,0.0234 ± 0.003,0.0287 ± 0.00711,0.14 ± 0.0612,600 and 604.3,273 °C (dec.),1.50 1·10^-6cm/sec,,,,,,,,
O=C(O)c1ccc(-c2ccc(/C=C3\SC(=S)N(Cc4ccc(F)cc4)C3=O)o2)cc1O [Compound 1],2.951 ± 0.015,~0.05,0.168 ± 0.143,2.11 ± 0.918,,,1.28 1·10^-6cm/sec,3,0.0495 ± 0.002,without any antiviral activity on HPV-16,,,,,
"O=C(O)c1ccc(-c2ccc(/C=C3\SC(=S)N(CCCc4ccccc4)C3=O)o2)cc1O [Compound 9c, (Z)-2-hydroxy-4-(5-((4-oxo-3-(3-phenylpropyl)-2-thioxothiazolidin-5-ylidene)methyl)furan-2-yl)benzoic acid]",0.457 ± 0.011,0.0153 ± 0.002,0.052 ± 0.0212,0.422 ± 0.225,3936,248 °C (dec.),1.23 1·10^-6cm/sec,,,,,,,,
"O=C(O)c1ccc(-c2ccc(/C=C3\SC(=S)N(Cc4ccc(Cl)c(F)c4)C3=O)o2)cc1O [Compound 9f, (Z)-4-(5-((3-(4-chloro-3-fluorobenzyl)-4-oxo-2-thioxothiazolidin-5-ylidene)methyl)furan-2-yl)-2-hydroxybenzoic acid]",0.57 ± 0.009,0.017 ± 0.002,0.0264 ± 0.0111,0.153 ± 0.159,298,,0.87 1·10^-6cm/sec,,,,,,,,
"Cc1ccc(CCN2C(=O)/C(=C/c3ccc(-c4ccc(C(=O)O)c(O)c4)o3)SC2=S)cc1 [Compound 9b, (Z)-2-hydroxy-4-(5-((3-(4-methylphenethyl)-4-oxo-2-thioxothiazolidin-5-ylidene)methyl)furan-2-yl)benzoic acid]",0.457 ± 0.005,0.023 ± 0.004,0.00489 ± 0.00159,0.0578 ± 0.0226,2209,258 °C (dec.),2.32 1·10^-6cm/sec,,,,,,,,
O=C(O)c1ccc(-c2ccc(/C=C3\SC(=S)N(Cc4ccc(Cl)cc4)C3=O)o2)cc1O [Compound 2],0.19 ± 0.009,0.004,0.0119 ± 0.00573,0.481 ± 0.299,9400 and 9403,,1.26 1·10^-6cm/sec,,,without any antiviral activity on HPV-16,0.132,0.131 ± 0.0599,62,0.81 ± 0.02,0.013 ± 0.003
"O=C(O)c1ccc(-c2ccc(/C=C3\SC(=S)N(c4ccc(F)c(Cl)c4)C3=O)o2)cc1O [Compound 9e, (Z)-4-(5-((3-(3-chloro-4-fluorophenyl)-4-oxo-2-thioxothiazolidin-5-ylidene)methyl)furan-2-yl)-2-hydroxybenzoic acid]",0.42 ± 0.007,0.03 ± 0.001,0.0503 ± 0.0105,0.206 ± 0.0855,>1988,,0.92 1·10^-6cm/sec,,,,,,,,
